Patent US6369050B1, “Antibacterial agents” (Fujisawa Pharmaceutical Co., Ltd., priority 1998, dated 2002)
Where two headings read alike, the source gives them in different places. Marks after values point to notes of the source that are not given here.

Legend:
S. pneumoniae FP1906 = experiment: Mixed respiratory infection in mice, viable S. pneumoniae in the lung (Test Example 4); type: in vivo; conditions: oral, 2 days after infection
Description: (§1) ICR strain male mice (4 weeks old, 5 animals per group) given cyclophosphamide (200 mg/kg, ip) 4 days prior to infection were nasally infected with S. pneumoniae FP1906 (2.0×10^7 cfu/mouse) and K. pneumoniae 15004 (5.5×10^3 cfu/mouse). Each drug was orally administered three times (3, 18 and 26 hours after infection) and, at 2 days after infection, viable cells in the lung were counted.

K. pneumoniae 15004 = experiment: Mixed respiratory infection in mice, viable K. pneumoniae in the lung (Test Example 4); type: in vivo; conditions: oral, 2 days after infection
Description: as §1

K. pneumoniae = experiment: Checkerboard method MIC, K. pneumoniae (Test Example 1); type: cell-based; conditions: for MIC: Klebsiella pneumoniae, antibiotic used alone, read-out: MIC, single use; for MIC, combined use: CFIX and AMPC used combinedly
Description: (§2) Checkerboard method (cf. Hideyo Yamaguchi: “Konnichi no Koseibusshitsu (Antibiotics of today)”, page 411, published by Nanzando)
(§3) The MIC of each antibiotic used singly and the MIC of each combination of antibiotics were determined by the standard method established by the Japan Society of Chemotherapy, using Mueller-Hinton agar medium (MHA, product of Difco) for M. catarrhalis and K. pneumoniae, 5% equine blood agar (MHA+5% equine blood) for S. pneumoniae, and MHA+5% equine blood (chocolate agar) for H. influenzae. A 100-fold dilution of an overnight culture of each bacterial strain was stamp-inoculated and, after 18 hours of incubation at 37° C. (in the case of S. pneumoniae and H. influenzae, in an atmosphere containing 5% carbon dioxide), the MIC was measured (in μg/ml)
(§4) The MIC's of two individual antibiotics and the MIC's of the two respective antibiotics used combinedly were determined by the checkerboard method and the fractional inhibitory concentration index (hereinafter, “FIC index”) was determined according to the equation shown below. [formula]
(§5) ao: MIC of antibiotic A used alone; b: MIC of antibiotic B used alone; a, b: MIC's of antibiotics A and B, respectively, when they are used combinedly.

[1] = test system: penicillin G-resistant S. pneumoniae; experiment: Checkerboard method MIC, penicillin G-resistant S. pneumoniae (Test Example 1); type: cell-based; conditions: for MIC: Streptococcus pneumoniae, antibiotic used alone, read-out: MIC, single use; for MIC, combined use: CFIX and AMPC used combinedly
Description: as §2, §3, §4, §5

| SMILES | Viable cells in the lung (logarithm), S. pneumoniae (S. pneumoniae FP1906; 10 mg/kg three times) | Viable cells in the lung (logarithm), S. pneumoniae (S. pneumoniae FP1906; 50 mg/kg three times) | Viable cells in the lung (logarithm), K. pneumoniae (K. pneumoniae 15004; 10 mg/kg three times) | Viable cells in the lung (logarithm), K. pneumoniae (K. pneumoniae 15004; 50 mg/kg three times) | MIC (K. pneumoniae; strain 15004) | MIC (K. pneumoniae; strain 15021) | MIC, combined use (K. pneumoniae; strain 15004) | MIC, combined use (K. pneumoniae; strain 15021) | MIC ([1]; strain FP1884) | MIC ([1]; strain FP1885) | MIC ([1]; strain FP1891) | MIC ([1]; strain FP1906) | MIC, combined use ([1]; strain FP1884) | MIC, combined use ([1]; strain FP1885) | MIC, combined use ([1]; strain FP1891) | MIC, combined use ([1]; strain FP1906) |
| --- | --- | --- | --- | --- | --- | --- | --- | --- | --- | --- | --- | --- | --- | --- | --- | --- |
| C=CC1=C(C(=O)O)N2C(=O)[C@@H](NC(=O)/C(=N\OCC(=O)O)c3csc(N)n3)[C@H]2SC1 [CFIX, Cefixime] | 8.46^*# logarithm | 8.26^*# logarithm | 4.14 logarithm | 2.34 logarithm | 0.05 µg/mL | 0.025 µg/mL | ≦0.00313 μg/ml | 0.0125 µg/mL | 12.5 µg/mL | 6.25 µg/mL | 3.13 µg/mL | 12.5 µg/mL | 0.78 µg/mL | 0.1 µg/mL | 0.78 µg/mL | 1.56 µg/mL |
| CC1(C)S[C@@H]2[C@H](NC(=O)[C@H](N)c3ccc(O)cc3)C(=O)N2[C@H]1C(=O)O [AMPC, amoxicillin] | 7.04 logarithm | 5.29^* logarithm | 9.32^*# logarithm | 9.38^*# logarithm | 100 µg/mL | 25 µg/mL | 50 µg/mL |  | 0.2 µg/mL | 0.78 µg/mL | 0.39 µg/mL | 0.76 µg/mL | 0.05 µg/mL | 0.39 µg/mL | 0.025 µg/mL | 0.2 µg/mL |
